# Legend:
# Proteus mirabilis C889 = assay: Minimum inhibitory concentration (mic), synergistical activity against β-lactamase producing organisms; format: cell-based; settings: substance alone
# Description: (§1) The minimum inhibitory concentrations (mic) of ampicillin N-methylcarbamoylclavulanic acid, and mixtures of ampicillin and N-methylcarbamoylclavulanic acid were determined against 4 β-lactamase producing organisms.
# (§2) MIC's (in μg/ml) of Ampicillin and N-methylcarbamoylclavulanic acid
# (§3) combinations thereof against 4 β-lactamase producing organisms.
# Klebsiella aerogenes E70 = assay: as above; format: cell-based; settings: substance alone
# Description: as §1, §2, §3
# [1] = system: Staphylococcus aureus Russell; assay: as above; format: cell-based; settings: substance alone
# Description: as §1, §2, §3
# Escherichia coli JT4 = assay: as above; format: cell-based; settings: substance alone
# Description: as §1, §2, §3
# [2] = Stability of n.m.r. solution (D2O); format: physicochemical
# Description: n.m.r. (D2 O) 2.88 (3H,s, NCH3) 3.20 (1H,d, J 18Hz, 6β-CH) 3.70 (1H,dd, J 18Hz J' 3Hz 6α-CH) 5.7δ (1H,d, J 3Hz, 5-CH); the other protons were obscured by the water peak.
Compound,MIC (Proteus mirabilis C889) [µg/mL],MIC (Klebsiella aerogenes E70) [µg/mL],MIC [1] [µg/mL],MIC (Escherichia coli JT4) [µg/mL],degradation of the n.m.r. solution [2]
"CC1(C)S[C@@H]2[C@H](NC(=O)[C@H](N)c3ccccc3)C(=O)N2[C@H]1C(=O)O [Ampicillin, ampicillin, reference compound]",> 500,250,500,> 5000,–
CNC(=O)OC/C=C1\O[C@@H]2CC(=O)N2[C@H]1C(=O)O [N-methylcarbamoylclavulanic acid],> 500,500,250,> 500,–
CNC(=O)OC/C=C1\O[C@@H]2CC(=O)N2[C@H]1C(=O)O [Sodium N-methylcarbamoylclavulanate],–,–,–,–,signs of rapid degradation

# From US4079177A, “Clavulanic acid carbamates” (Beecham Group Limited, priority 1975, dated 1978)
